Active and inactive are the calls of the source. No cut-off for these calls is given here.
What was measured:
[1] = target: T1, Amine oxidase [flavin-containing] A (Homo sapiens, UniProt P21397); experiment: Inhibition of MAO-A (unknown origin)
T1 sequence (P21397 whole entry): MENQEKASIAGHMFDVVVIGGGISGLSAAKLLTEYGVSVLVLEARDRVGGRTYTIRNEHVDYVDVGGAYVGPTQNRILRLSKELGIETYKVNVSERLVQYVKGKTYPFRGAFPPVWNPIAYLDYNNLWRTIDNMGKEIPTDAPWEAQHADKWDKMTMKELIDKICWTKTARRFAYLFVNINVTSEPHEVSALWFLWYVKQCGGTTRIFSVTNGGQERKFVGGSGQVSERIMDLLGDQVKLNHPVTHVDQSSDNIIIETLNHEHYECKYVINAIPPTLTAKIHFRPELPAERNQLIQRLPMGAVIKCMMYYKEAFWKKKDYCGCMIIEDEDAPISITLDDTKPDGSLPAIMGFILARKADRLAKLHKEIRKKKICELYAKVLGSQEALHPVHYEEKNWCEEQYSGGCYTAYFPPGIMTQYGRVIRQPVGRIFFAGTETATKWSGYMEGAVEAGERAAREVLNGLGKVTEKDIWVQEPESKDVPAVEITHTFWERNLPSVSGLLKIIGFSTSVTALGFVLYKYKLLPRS

[2] = target: T2, Lysine-specific histone demethylase 1A (Homo sapiens, UniProt O60341); experiment: Binding affinity to recombinant human LSD1 assessed as increase in thermal stability at 5 uM at 38 to 58 degreeC incubated for 48 hrs by cellular thermal shift assay
[3] = target: T2, Lysine-specific histone demethylase 1A; experiment: Inhibition of LSD1 in human PC-3 cells assessed as upregulation of H3K4me2 expression at 1 to 5 uM incubated for 5 days by Western blotting analysis; format: cell-based; conditions: dose 1-5 µM, time 5.0 day
[4] = target: T2, Lysine-specific histone demethylase 1A; experiment: Inhibition of LSD1 in human LNCaP cells assessed as upregulation of H3K9me2 expression at 1 to 5 uM incubated for 5 days by Western blotting analysis; format: cell-based; conditions: dose 1-5 µM, time 5.0 day
PC-3 [5] = experiment: Induction of apoptosis in human PC-3 cells at 1 to 10 uM incubated for 5 days by Annexin V-FITC/PI staining based flow cytometric analysis; format: functional, cell-based; conditions: dose 1-10 µM, time 5.0 day
LNCaP [6] = experiment: Induction of apoptosis in human LNCaP cells at 1 to 10 uM incubated for 5 days by Annexin V-FITC/PI staining based flow cytometric analysis; format: functional, cell-based; conditions: dose 1-10 µM, time 5.0 day
LNCaP [7] = experiment: Induction of cell cycle arrest in human LNCaP cells assessed as accumulation of cells at G0/G1 phase incubated for 72 hrs by propidium iodide/RNase staining based flow cytometric analysis; format: functional
CWR22R [8] = experiment: Induction of apoptosis in human 22Rv1 cells assessed as upregulation of p21 expression incubated for 48 hr by Western blotting analysis; format: functional, cell-based
PC-3 [9] = experiment: Antimigratory activity in human PC-3 cells assessed as upregulation of E-cadherin expression at 3 to 10 uM incubated for 48 hrs by Western blotting analysis; format: functional, cell-based; conditions: dose 3-10 µM
LNCaP [10] = experiment: Antimigratory activity in human LNCaP cells assessed as upregulation of E-cadherin expression at 3 to 10 uM incubated for 48 hrs by Western blotting analysis; format: functional, cell-based; conditions: dose 3-10 µM
[11] = Metabolic stability in Sprague-Dawley rat hepatocyte assessed as compound remaining at 20 uM incubated for 180 mins by HPLC-MS/MS analysis; format: ADME, cell-based; conditions: hepatocytes, read-out: Stability
[12] = Metabolic stability in Sprague-Dawley rat hepatocyte assessed as half life at 20 uM incubated for 60 mins by HPLC-MS/MS analysis; format: ADME, cell-based; conditions: hepatocytes
[13] = Metabolic stability in Sprague-Dawley rat hepatocyte assessed as intrinsic clearance at 20 uM incubated for 60 mins by HPLC-MS/MS analysis; format: ADME, cell-based; conditions: hepatocytes, 1 h
[14] = Tmax in BALB/c mouse at 50 mg/kg,ip measured upto 24 hrs by HPLC-MS/MS analysis; format: ADME, organism-based; conditions: in vivo
[15] = Tmax in BALB/c mouse at 50 mg/kg,po measured upto 24 hrs by HPLC-MS/MS analysis; format: ADME, organism-based; conditions: in vivo
[16] = Cmax in BALB/c mouse at 50 mg/kg,ip measured upto 24 hrs by HPLC-MS/MS analysis; format: ADME, organism-based; conditions: in vivo
[17] = Clearance in BALB/c mouse at 50 mg/kg,iv measured upto 24 hrs by HPLC-MS/MS analysis; format: ADME, organism-based; conditions: in vivo
[18] = Clearance in BALB/c mouse at 50 mg/kg,ip measured upto 24 hrs by HPLC-MS/MS analysis; format: ADME, organism-based; conditions: in vivo
CWR22R [19] = experiment: Antitumor activity against human 22Rv1 cells xenografted in BALB/c mouse assessed as tumor growth inhibition at 80 mg/kg,ip administrated daily for 31 days relative to control; format: functional; conditions: 22Rv1, 744 h, time 31 day, read-out: TGI
[20] = Toxicity in BALB/c mouse xenografted with human 22Rv1 cells assessed as heart morphological change at 80 mg/kg,ip administrated daily for 31 days; format: organism-based, CWR22R; conditions: in vivo, 744 h, time 31 day
[21] = Toxicity in BALB/c mouse xenografted with human 22Rv1 cells assessed as lung morphological change at 80 mg/kg,ip administrated daily for 31 days; format: organism-based, CWR22R; conditions: in vivo, 744 h, time 31 day
[22] = target: T2, Lysine-specific histone demethylase 1A; experiment: Inhibition of LSD1 in human LNCaP cells assessed as downregulation of AR expression incubated for 48 hrs by Western blotting analysis; format: cell-based
[23] = target: T2, Lysine-specific histone demethylase 1A; experiment: Inhibition of LSD1 in human 22Rv1 cells assessed as downregulation of AR-V7 expression at 1 to 20 uM incubated for 48 hrs by Western blotting analysis; format: cell-based; conditions: dose 1-20 µM
LNCaP [24] = experiment: Synergistic antiproliferative activity against human LNCaP cells assessed as inhibition of cell growth at 6.25 to 100 uM incubated for 6 to 7 days in presence of enzalutamide by MTS assay; format: functional, cell-based; conditions: dose 6.25-100 µM, time 6-7 day
MV4-11 = experiment: Antiproliferative activity against human MV4-11 cells assessed as inhibition of cell growth incubated for 6 to 7 days by MTS assay; format: functional, cell-based; conditions: time 6-7 day
MOLM-13 = experiment: Antiproliferative activity against human MOLM-13 cells assessed as inhibition of cell growth incubated for 6 to 7 days by MTS assay; format: functional, cell-based; conditions: time 6-7 day
U-937 = experiment: Antiproliferative activity against human U-937 cells assessed as inhibition of cell growth incubated for 6 to 7 days by MTS assay; format: functional, cell-based; conditions: time 6-7 day
SU-DHL-2 = experiment: Antiproliferative activity against human SU-DHL-2 cells assessed as inhibition of cell growth incubated for 6 to 7 days by MTS assay; format: functional, cell-based; conditions: time 6-7 day
SUD4 = experiment: Antiproliferative activity against human SU-DHL-4 cells assessed as inhibition of cell growth incubated for 6 to 7 days by MTS assay; format: functional, cell-based; conditions: time 6-7 day
NCI-H292 = experiment: Antiproliferative activity against human NCI-H292 cells assessed as inhibition of cell growth incubated for 6 to 7 days by MTS assay; format: functional, cell-based; conditions: time 6-7 day
BEAS-2B = experiment: Cytotoxicity against human BEAS-2B cells incubated for 6 to 7 days by MTS assay; format: toxicity, cell-based; conditions: time 6-7 day
CWR22R [25] = conditions: Homo sapiens, dose 80.0 mg/kg, route ip, time 31.0 day
CWR22R [26] = conditions: Homo sapiens, dose 80.0 mg/kg, route ip, time 31.0 day; remark: listed apart in the source
CWR22R [27] = conditions: Homo sapiens, dose 80.0 mg/kg, route ip, time 31.0 day; remark: listed apart in the source

IC50 [1]: 1.54 µM
Activity [2]: Active
inhibition [3]: Active
inhibition [4]: Active
remaining at 3 h, 20 µM [11]: 70%
half-life at 20 µM [12]: 5.5 h
CLH [13]: 4 µL/min/mg
Tmax [14]: 2 h
Tmax [15]: 1 h
Cmax [16]: 20600 ng/mL
clearance [17]: 6.67 mL/min/kg
CL/F [18]: 8.33 mL/min/kg
inhibition [22]: Dose-Dependent Effect
inhibition [23]: Active
SMILES: CCN(c1cc(-c2ccc([C@@H]3C[C@H]3N(CC3CCOCC3)C(=O)OC(C)(C)C)cc2)cc(C(=O)NCc2c(C)cc(C)[nH]c2=O)c1C)C1CCOCC1 (racemic)
Activity (PC-3 [5]): Active
Activity (LNCaP [6]): Active
Activity (LNCaP [7]): Dose-Dependent Effect
Activity (CWR22R [8]): Dose-Dependent Effect
Activity (PC-3 [9]): Active
Activity (LNCaP [10]): Active
inhibition in vivo at 80 mg/kg (CWR22R [19]): 52.2%
Activity [20]: Non-Toxic
Activity [21]: Non-Toxic
Activity (LNCaP [24]): Active
Activity (MV4-11): Active
Activity (MOLM-13): Active
Activity (U-937): Active
Activity (SU-DHL-2): Active
Activity (SUD4): Active
Activity (NCI-H292): Active
Activity (BEAS-2B): Non-Toxic
inhibition (CWR22R [25]): Active
inhibition (CWR22R [26]): Active
inhibition (CWR22R [27]): Active

— ChEMBL document CHEMBL5584353, “Design, Synthesis, and Biological Evaluation of Potent EZH2/LSD1 Dual Inhibitors for Prostate Cancer” (J Med Chem, 2024)
